Experimental data taken from patent US20110092490A1, “PYRIMIDINES, TRIAZINES AND THEIR USE AS PHARMACEUTICAL AGENTS” (THE UNIVERSITY OF NOTTINGHAM, priority 2008, published 2011).
Where two headings read alike, the source gives them in different places.

Tests used:
HCT-116 = assay: 72-h MTT cytotoxicity assay; assay type: cell-based, human; conditions: for GI50: Homo sapiens, HCT-116, HCT116 cells, 72-h MTT
Experimental: (§1) MTT cytotoxicity assay. […] Human tumour cell lines were obtained from ECACC (European Collection of Cell Cultures). Standard 72-h MTT (thiazolyl blue; 3-[4,5-dimethylthiazol-2-yl]-2,5-diphenyltetrazolium bromide, 2 mg/ml in phosphate buffered saline) assays were performed. In short: cells were seeded into 96-well plates according to doubling time and incubated overnight at 37° C. Test compounds were made up in DMSO and a ⅓ dilution series prepared in 100 μL cell media, added to cells (in triplicates) and incubated for 72 hr at 37° C. MTT was made up as a stock of 5 mg/mL in cell media and filter-sterilised. Media was removed from cells followed by a wash with 200 μL PBS. MTT solution was then added at 20 μL per well and incubated in the dark at 37° C. for 4 h. MTT solution was removed and cells again washed with 200 μL PBS. MTT dye was solubilised with 200 μL per well of DMSO with agitation. Absorbance was read at 550 nm on an Anthos Labtec Systems plate reader.

MCF-7 = assay: 72-h MTT cytotoxicity assay; assay type: cell-based, human; conditions: for GI50: Homo sapiens, MCF7 cells, 72-h MTT
Experimental: as §1

A2780 = assay: 72-h MTT cytotoxicity assay; assay type: cell-based; conditions: read-out: 72-h MTT IC50 (μM), human cell line, ovarian carcinoma
Experimental: (§2) MTT cytotoxicity assay. The compounds from the examples above were subjected to a standard cellular proliferation assay using the method described previously (Haselsberger, K. et al. Anti Cancer Drugs 1996, 7, (3), 331-8. Loveland, B. E. et al. Biochemistry International 1992, 27, (3), 501-10). Human tumour cell lines were obtained from ECACC (European Collection of Cell Cultures). Standard 72-h MTT (thiazolyl blue; 3-[4,5-dimethylthiazol-2-yl]-2,5-diphenyltetrazolium bromide, 2 mg/ml in phosphate buffered saline) assays were performed. In short: cells were seeded into 96-well plates according to doubling time and incubated overnight at 37° C. Test compounds were made up in DMSO and a ⅓ dilution series prepared in 100 μL cell media, added to cells (in triplicates) and incubated for 72 hr at 37° C. MTT was made up as a stock of 5 mg/mL in cell media and filter-sterilised. Media was removed from cells followed by a wash with 200 μL PBS. MTT solution was then added at 20 μL per well and incubated in the dark at 37° C. for 4 h. MTT solution was removed and cells again washed with 200 μL PBS. MTT dye was solubilised with 200 μL per well of DMSO with agitation. Absorbance was read at 550 nm on an Anthos Labtec Systems plate reader.

A549 = assay: 72-h MTT cytotoxicity assay; assay type: cell-based; conditions: read-out: 72-h MTT IC50 (μM), human cell line, lung
Experimental: as §2

HeLa = assay: 72-h MTT cytotoxicity assay; assay type: cell-based; conditions: read-out: 72-h MTT IC50 (μM), human cell line, cervix
Experimental: as §2

MDA-MB-231 = assay: 72-h MTT cytotoxicity assay; assay type: cell-based; conditions: read-out: 72-h MTT IC50 (μM), human cell line, breast
Experimental: as §2

Mia-Paca-2 = assay: 72-h MTT cytotoxicity assay; assay type: cell-based; conditions: read-out: 72-h MTT IC50 (μM), human cell line, pancreatic carcinoma
Experimental: as §2

NCI-H460 = assay: 72-h MTT cytotoxicity assay; assay type: cell-based; conditions: read-out: 72-h MTT IC50 (μM), human cell line, lung
Experimental: as §2

PANC W1 = assay: 72-h MTT cytotoxicity assay; assay type: cell-based; conditions: read-out: 72-h MTT IC50 (μM), human cell line, pancreatic carcinoma
Experimental: as §2

Human tumour cell lines = assay: 72-h MTT cytotoxicity assay, human tumour cell lines (panel / mean); assay type: cell-based; conditions: read-out: 72-h MTT IC50 (μM), mean over the nine human cell lines of Table A2
Experimental: as §2

CDK2 = CDK2 (Homo sapiens, UniProt P24941); assay: Kinase assay (radioactive phosphate incorporation); assay type: biochemical; conditions: CDK2-cyclinE; read-out: Kinase inhibition IC50 CDK2-cyclinE
Experimental: (§3) Kinase assays. […] This was achieved by measurement of incorporation of radioactive phosphate from ATP into appropriate polypeptide substrates. Recombinant protein kinases and kinase complexes were produced or obtained commercially. Assays were performed using 96-well plates and appropriate assay buffers (typically 25 mM β-glycerophosphate, 20 mM MOPS, 5 mM EGTA, 1 mM DTT, 1 mM […], pH 7.4), into which were added 2-4 μg of active enzyme with appropriate substrates. The reactions were initiated by addition of Mg/ATP mix (15 mM MgCl2+100 μM ATP with 30-50 kBq per well of [γ-^32P]-ATP) and mixtures incubated as required at 30° C.; Reactions were stopped on ice, followed by filtration through p81 filterplates or GF/C filterplates (Whatman Polyfiltronics, Kent, UK). After washing 3 times with 75 mM aq orthophosphoric acid, plates were dried, scintillant added and incorporated radioactivity measured in a scintillation counter (TopCount, Packard Instruments, Pangbourne, Berks, UK). Compounds for kinase assay were made up as 10 mM stocks in DMSO and diluted into 10% DMSO in assay buffer.

CDK9 = CDK9 (Homo sapiens, UniProt P50750); assay: Kinase assay (radioactive phosphate incorporation); assay type: biochemical
Sequence of CDK9 (P50750 whole entry, species assumed): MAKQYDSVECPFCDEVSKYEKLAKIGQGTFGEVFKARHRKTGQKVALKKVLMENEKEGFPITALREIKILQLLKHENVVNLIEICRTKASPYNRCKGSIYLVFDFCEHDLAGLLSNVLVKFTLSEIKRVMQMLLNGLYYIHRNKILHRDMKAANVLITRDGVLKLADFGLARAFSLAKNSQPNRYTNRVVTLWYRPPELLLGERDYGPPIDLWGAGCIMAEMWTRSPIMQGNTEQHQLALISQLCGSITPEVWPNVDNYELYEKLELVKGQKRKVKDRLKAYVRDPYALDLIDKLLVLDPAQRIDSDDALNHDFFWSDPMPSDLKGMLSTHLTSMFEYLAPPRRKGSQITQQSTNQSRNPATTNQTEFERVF
Sequence of CDK9 (O60563 whole entry partner, species assumed): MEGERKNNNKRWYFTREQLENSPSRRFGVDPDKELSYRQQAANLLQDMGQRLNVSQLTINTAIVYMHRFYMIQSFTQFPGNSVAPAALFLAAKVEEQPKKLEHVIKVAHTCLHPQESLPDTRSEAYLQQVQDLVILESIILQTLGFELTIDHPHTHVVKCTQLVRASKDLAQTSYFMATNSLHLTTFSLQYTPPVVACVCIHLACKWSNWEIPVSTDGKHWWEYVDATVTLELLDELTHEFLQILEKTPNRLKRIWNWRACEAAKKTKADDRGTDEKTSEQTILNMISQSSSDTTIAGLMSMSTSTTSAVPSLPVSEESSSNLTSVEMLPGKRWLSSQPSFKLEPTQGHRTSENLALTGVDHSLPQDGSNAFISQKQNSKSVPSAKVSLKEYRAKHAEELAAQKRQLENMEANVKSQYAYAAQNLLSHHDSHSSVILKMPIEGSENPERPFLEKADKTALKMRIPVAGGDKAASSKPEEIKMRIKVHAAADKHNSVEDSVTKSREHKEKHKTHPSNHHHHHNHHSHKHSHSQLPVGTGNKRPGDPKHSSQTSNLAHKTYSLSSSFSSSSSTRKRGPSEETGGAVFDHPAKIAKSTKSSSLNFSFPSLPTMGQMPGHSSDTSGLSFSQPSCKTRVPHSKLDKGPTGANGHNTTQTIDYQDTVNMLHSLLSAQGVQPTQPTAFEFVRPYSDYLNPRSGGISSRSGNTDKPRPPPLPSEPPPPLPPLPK
Experimental: as §3

CDK7 = CDK7 (Homo sapiens, UniProt P50613); assay: Kinase assay (radioactive phosphate incorporation); assay type: biochemical; conditions: CDK7-cyclinH; read-out: Kinase inhibition IC50 CDK7-cyclinH
Sequence of CDK7 (P50613 whole entry, species assumed): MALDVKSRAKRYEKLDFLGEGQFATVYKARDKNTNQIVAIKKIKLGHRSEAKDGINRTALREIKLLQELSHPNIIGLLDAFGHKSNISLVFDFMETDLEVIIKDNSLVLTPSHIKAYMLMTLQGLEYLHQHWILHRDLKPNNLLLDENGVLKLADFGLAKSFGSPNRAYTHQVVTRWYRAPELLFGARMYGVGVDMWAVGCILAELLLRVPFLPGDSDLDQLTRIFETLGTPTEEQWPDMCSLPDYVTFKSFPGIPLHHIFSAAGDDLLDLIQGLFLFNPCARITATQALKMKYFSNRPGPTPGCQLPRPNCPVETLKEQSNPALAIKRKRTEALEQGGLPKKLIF
Sequence of CDK7 (P51946 whole entry partner, species assumed): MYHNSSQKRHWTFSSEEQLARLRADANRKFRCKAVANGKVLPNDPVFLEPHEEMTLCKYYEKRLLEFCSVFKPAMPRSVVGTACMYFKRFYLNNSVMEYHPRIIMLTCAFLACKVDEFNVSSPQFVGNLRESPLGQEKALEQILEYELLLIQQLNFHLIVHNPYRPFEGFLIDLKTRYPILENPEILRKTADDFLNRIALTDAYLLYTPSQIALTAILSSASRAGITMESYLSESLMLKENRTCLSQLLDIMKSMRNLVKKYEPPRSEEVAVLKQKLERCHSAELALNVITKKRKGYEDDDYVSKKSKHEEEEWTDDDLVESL
Experimental: Kinase assays. The compounds from the examples above were investigated for their ability to inhibit the enzymatic activity of various protein kinases using the method as disclosed in Wang, S. et al. J Med Chem 2004, 47, 1662. This was achieved by measurement of incorporation of radioactive phosphate from ATP into appropriate polypeptide substrates. Recombinant protein kinases and kinase complexes were produced or obtained commercially. Assays were performed using 96-well plates and appropriate assay buffers (typically 25 mM β-glycerophosphate, 20 mM MOPS, 5 mM EGTA, 1 mM DTT, 1 mM […], pH 7.4), into which were added 2-4 μg of active enzyme with appropriate substrates. The reactions were initiated by addition of Mg/ATP mix (15 mM MgCl2+100 μM ATP with 30-50 kBq per well of [γ-^32P]-ATP) and mixtures incubated as required at 30° C.; Reactions were stopped on ice, followed by filtration through p81 filterplates or GF/C filterplates (Whatman Polyfiltronics, Kent, UK). After washing 3 times with 75 mM aq orthophosphoric acid, plates were dried, scintillant added and incorporated radioactivity measured in a scintillation counter (TopCount, Packard Instruments, Pangbourne, Berks, UK). Compounds for kinase assay were made up as 10 mM stocks in DMSO and diluted into 10% DMSO in assay buffer.

[1] = 72-h MTT cytotoxicity assay; assay type: cell-based; conditions: human, MRC5 cells
Experimental: as §1

[2] = CDK9-cyclinT1, read-out: Kinase inhibition IC50 CDK9-cyclinT1

CNc1nc(C)c(-c2nc(Nc3ccc(C)c(S(=O)(=O)N4CCOCC4)c3)ncc2C#N)s1 [Example 1.1, 4-(4-Methyl-2-methylamino-thiazol-5-yl)-2-[4-methyl-3-(morpholine-4-sulfonyl)-phenylamino]-pyrimidine-5-carbonitrile]
GI50 (HCT-116): 0.06 µM
IC50 (HCT-116; read-out: 72-h MTT IC50 (μM), human cell line HCT-116 (origin not given, stands under cervix), 72 h): 0.06 µM
GI50 (MCF-7): 0.06 µM
IC50 (MCF-7; MCF7, read-out: 72-h MTT IC50 (μM), human cell line, breast, MCF-7, 72 h): 0.06 µM
IC50 (A2780): 0.147 µM
IC50 (A549): 0.534 µM
IC50 (HeLa): 0.661 µM
IC50 (MDA-MB-231): 0.923 µM
IC50 (Mia-Paca-2): 0.468 µM
IC50 (NCI-H460): 0.681 µM
IC50 (PANC W1): 0.366 µM
IC50 (Human tumour cell lines): 0.433 µM
IC50 (CDK2): 0.232 µM
IC50 (CDK9; [2]): 0.041 µM
IC50 (CDK7): > 1 µM
GI50 at 72 h [1]: 3.14 µM

CNc1nc(C)c(-c2nc(Nc3ccc(O)cc3)ncc2C#N)s1 [Example 1.2, 2-(4-Hydroxy-phenylamino)-4-(4-methyl-2-methylamino-thiazol-5-yl)-pyrimidine-5-carbonitrile]
GI50 (HCT-116): 0.4 µM
GI50 (MCF-7): 0.23 µM
GI50 at 72 h [1]: 1.05 µM

CNc1nc(C)c(-c2nc(Nc3cccc(O)c3)ncc2C#N)s1 [Example 1.3, 2-(3-Hydroxy-phenylamino)-4-(4-methyl-2-methylamino-thiazol-5-yl)-pyrimidine-5-carbonitrile]
IC50 (CDK9): 0.019 µM

CNc1nc(C)c(-c2nc(Nc3cccc(C(=O)N4CCOCC4)c3)ncc2C#N)s1 [Example 1.4]
GI50 (HCT-116): 0.59 µM
GI50 (MCF-7): 0.82 µM
IC50 (CDK2): 0.147 µM
IC50 (CDK9; [2]): 0.085 µM
IC50 (CDK7): 3.74 µM
GI50 at 72 h [1]: 4.43 µM

CNc1nc(C)c(-c2nc(Nc3cccc(C(=O)N4CCN(C(C)=O)CC4)c3)ncc2C#N)s1 [Example 1.5, 2-(3-(4-Acetylpiperazine-1-carbonyl)phenylamino)-4-(4-methyl-2-(methylamino)-thiazol-5-yl)pyrimidine-5-carbonitrile]
IC50 (CDK2): 0.052 µM
IC50 (CDK9; [2]): 0.033 µM

CNc1nc(C)c(-c2nc(Nc3cccc(C(=O)O)c3)ncc2C#N)s1 [Example 1.6, 3-(5-cyano-4-(4-methyl-2-(methylamino)thiazol-5-yl)pyrimidin-2-ylamino)benzoic acid]
GI50 (HCT-116): 0.55 µM
GI50 (MCF-7): 1.87 µM
GI50 at 72 h [1]: > 100 µM

CNc1nc(C)c(-c2nc(Nc3ccc(S(N)(=O)=O)cc3)ncc2C#N)s1 [Example 1.8, 4-(5-cyano-4-(4-methyl-2-(methylamino)thiazol-5-yl)pyrimidin-2-ylamino)benzenesulfonamide]
GI50 (HCT-116): 0.34 µM
GI50 (MCF-7): 1.64 µM
GI50 at 72 h [1]: 26 µM

COc1cccc(-c2nc(Cl)nc(Nc3ccc(O)cc3)n2)c1 [Example 2.1, 4-(4-chloro-6-(3-methoxyphenyl)-1,3,5-triazin-2-ylamino)phenol]
melting point: 93.5 to 94 °C

COc1cccc(-c2nc(Cl)nc(Nc3cccc([N+](=O)[O-])c3)n2)c1 [Example 2.2, 4-chloro-6-(3-methoxyphenyl)-N-(3-nitrophenyl)-1,3,5-triazin-2-amine]
melting point: 196.9 to 197.2 °C

COc1cccc(-c2nc(Cl)nc(Nc3cccc(Br)c3)n2)c1 [Example 2.3, N-(3-bromophenyl)-4-chloro-6-(3-methoxyphenyl)-1,3,5-triazin-2-amine]
melting point: 141.9 to 142.1 °C

COc1cccc(-c2nc(Cl)nc(Nc3ccc(C)c(S(=O)(=O)N4CCOCC4)c3)n2)c1 [Example 2.4, 4-chloro-6-(3-methoxyphenyl)-N-(4-methyl-3-(morpholinosulfonyl)phenyl)-1,3,5-triazin-2-amine]
GI50 (HCT-116): 0.53 µM
GI50 (MCF-7): 1.58 µM
GI50 at 72 h [1]: 0.58 µM

COc1cccc(-c2nc(N)nc(Nc3cccc([N+](=O)[O-])c3)n2)c1 [Example 2.6, 6-(3-methoxyphenyl)-N2-(3-nitrophenyl)-1,3,5-triazine-2,4-diamine]
GI50 (HCT-116): 7.09 µM
GI50 (MCF-7): 7.07 µM
GI50 at 72 h [1]: 37.6 µM

COc1cccc(-c2nc(NO)nc(Nc3cccc([N+](=O)[O-])c3)n2)c1 [Example 2.8, 4-(hydroxyamino)-6-(3-methoxyphenyl)-N-(3-nitrophenyl)-1,3,5-triazin-2-amine]
GI50 (HCT-116): 3.48 µM
GI50 (MCF-7): 6.42 µM
GI50 at 72 h [1]: 4.24 µM
